Data taken from the NIST ThermoML archive (doi:10.1021/acs.jced.5b00545).

Settings: Liquid; for mass density / kinematic viscosity: 101.33 kPa; for mass density: Pycnometric method; for kinematic viscosity: Capillary tube (Ostwald / Ubbelohde) method; for vapor or sublimation pressure: Closed cell (Static) method

CCCCCC[C@@H](O)CC=CCCCCCCCC(=O)OC [[R]-methyl 12-hydroxy-9-octadecenoate]
Settings | kinematic viscosity [m2/s] | mass density [kg/m3] | vapor or sublimation pressure [kPa]
293.16 K | – | 928.5 | –
298.23 K | 2.95e-05 | – | –
303.13 K | 2.35e-05 | – | –
303.17 K | – | 921.2 | –
308.25 K | 1.81e-05 | – | –
313.15 K | 1.49e-05 | – | –
313.33 K | – | 916.7 | –
318.38 K | 1.2e-05 | – | –
323.05 K | – | 910.3 | –
323.08 K | 1.01e-05 | – | –
328.12 K | 8.52e-06 | – | –
333.15 K | 7.25e-06 | – | –
333.25 K | – | 904 | –
338.05 K | 6.26e-06 | – | –
343.1 K | 5.43e-06 | – | –
343.32 K | – | 895.8 | –
348.06 K | 4.76e-06 | – | –
353.06 K | – | 883.3 | –
353.11 K | 4.2e-06 | – | –
358.15 K | 3.73e-06 | – | –
363.38 K | – | 875 | –
373.26 K | – | 865.8 | –
383.23 K | – | 857.5 | –
451.58 K | – | – | 0.232
454.7 K | – | – | 0.276
457.23 K | – | – | 0.319
459.5 K | – | – | 0.361
461.85 K | – | – | 0.41
463.55 K | – | – | 0.449
465.2 K | – | – | 0.49
466.83 K | – | – | 0.533
469.55 K | – | – | 0.61
470.4 K | – | – | 0.637
471.25 K | – | – | 0.665
472.3 K | – | – | 0.7
473.15 K | – | – | 0.73
474.9 K | – | – | 0.794
476.8 K | – | – | 0.868

CCCCCCCCCCCCCCCC(=O)OC [methyl hexadecanoate]
Settings | vapor or sublimation pressure [kPa]
407.12 K | 0.13
414.26 K | 0.21
418.18 K | 0.24
422.34 K | 0.27
424.68 K | 0.305
427.54 K | 0.365
429.32 K | 0.415
432.32 K | 0.42
434.18 K | 0.515
437.3 K | 0.545
438.44 K | 0.56
439.6 K | 0.65
441 K | 0.66
445.36 K | 0.84
447.06 K | 0.85
